From the NIST ThermoML archive (doi:10.1021/je901026b)
± gives the expanded uncertainty stated by the source.

Tests used:
[1] = Liquid; for mass density: 298.15 K, 101.33 kPa; for vapor or sublimation pressure: Ebulliometric method (Recirculating still)
[2] = refractive index (Na D-line) (dimensionless); details: 293.15 K; 101.33 kPa; Liquid; Standard Abbe refractometry

Structure (SMILES) | mass density [1] [kg/m3] | vapor or sublimation pressure ([1]; 318.13 K) [kPa] | vapor or sublimation pressure ([1]; 328.2 K) [kPa] | vapor or sublimation pressure ([1]; 338.28 K) [kPa] | vapor or sublimation pressure ([1]; 328.15 K) [kPa] | vapor or sublimation pressure ([1]; 338.15 K) [kPa] | refractive index [2]
CC(C)(C)O [2-methylpropan-2-ol] | 780.44 ± 0.64 | 17.95 ± 0.12 | 30.35 ± 0.17 | 48.93 ± 0.24 |  |  | 
CCC(C)(C)OC [2-methoxy-2-methylbutane] | 765.85 ± 0.66 | 23.96 ± 0.14 | 35.45 ± 0.19 | 51.05 ± 0.25 | 35.45 ± 0.19 | 51.05 ± 0.25 | 1.38614 ± 0.00041
CC(C)CC(C)(C)C [2,2,4-trimethylpentane] | 687.8 ± 1.3 | 15.85 ± 0.11 |  |  | 23.68 ± 0.14 | 34.4 ± 0.19 | 1.38894 ± 0.00045
